# Columns and labels:
# [1] = target: T1, human VNUT (Homo sapiens, UniProt Q9BYT1); experiment: ATP loading into reconstituted liposomes containing human VNUT; format: biochemical; conditions: 0.1 mM PEP; 30°C, 2 minutes; N = 3
# T1 construct: made in house; host or cells: HIGH FIVE insect cells (baculovirus)
# T1 sequence (Q9BYT1 1-430 isoform Q9BYT1-2): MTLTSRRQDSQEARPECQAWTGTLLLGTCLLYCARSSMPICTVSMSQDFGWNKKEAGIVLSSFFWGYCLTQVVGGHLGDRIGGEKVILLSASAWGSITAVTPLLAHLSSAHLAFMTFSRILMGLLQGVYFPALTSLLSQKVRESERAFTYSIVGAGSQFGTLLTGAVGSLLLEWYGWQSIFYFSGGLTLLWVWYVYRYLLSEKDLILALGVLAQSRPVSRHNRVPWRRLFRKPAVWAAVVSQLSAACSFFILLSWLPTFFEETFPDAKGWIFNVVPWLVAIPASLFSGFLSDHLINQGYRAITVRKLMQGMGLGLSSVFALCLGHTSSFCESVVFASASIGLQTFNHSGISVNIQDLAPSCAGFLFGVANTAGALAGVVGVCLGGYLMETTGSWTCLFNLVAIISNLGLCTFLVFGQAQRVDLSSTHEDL
# Description: Human VNUT was prepared according to Reference C (Keisuke Sawada et al., 2008, Identification of a vesicular nucleotide transporter, Proc Natl Acad Sci USA, vol. 105, no. 15, 5683-5686). Insect cells (HIGH FIVE cells) were infected at MOI = 1 with a baculovirus in which a human VNUT expression system was incorporated. HIGH FIVE cells expressing VNUT (1 × 10^8 cells) were collected with a cell scraper, and suspended at about 8 mg/ml in 20 mM Tris-HCl (pH 8.0), 0.1 M potassium acetate, 10% glycerol, 10 µg/ml pepstatin A, and 10 µg/ml leupeptin, followed by homogenization of the cells using an ultrasonic generator (manufactured by Sonics Materials). […]
# VNUT (protein, 20 µg) prepared by the above method was mixed with liposomes (lipid weight, 200 µg), and left to stand at -80°C for 30 minutes. […] A major band was detected at a position of about 68 kDa. The proteins after the electrophoresis with the ePAGEL E-T520 2-10% gradient gel (manufactured by Atto) were electrotransferred to a nitrocellulose sheet, and analyzed by Western blotting using an anti-human SLC17A9 (VNUT) rabbit polyclonal antibody (manufactured by Proteintech).
# The ATP transport activity of the VNUT-containing reconstituted liposomes prepared by the above method was measured. […]
# [2] = tested on: MCD diet-induced NASH; conditions: administration of clodronate; Non Patent Literature 4; cited from earlier work
SMILES,ATP loading into liposomes [1],"NASH activity score, inflammatory cell infiltration, and hepatic fibrosis [2]"
"C=C(OP(=O)(O)O)C(=O)O [PEP, phosphoenolpyruvic acid]",strongly inhibited,–
O=P(O)(O)C(Cl)(Cl)P(=O)(O)O [clodronate],–,"improves the NASH activity score, inflammatory cell infiltration, and hepatic fibrosis"

# — patent EP4696306A1, “ADENOSINE TRIPHOSPHATE SECRETION INHIBITOR, HEPATIC STELLATE CELL ACTIVATION INHIBITOR, HEPATIC STELLATE CELL DEACTIVATOR, HEPATIC FIBROSIS THERAPEUTIC AGENT, NON-ALCOHOLIC STEATOHEPATITIS THERAPEUTIC AGENT, PSORIASIS THERAPEUTIC AGENT, AND USE OF COMPOUND FOR PRODUCING ADENOSINE TRIPHOSPHATE …” (KURUME UNIVERSITY, priority 2023, dated 2024)
